Consider 18 molecules from patent EP4647433A1, “SHP2 INHIBITOR AND USES THEREOF” (Kanaph Therapeutics Inc., priority 2023, dated 2024).

Where two headings read alike, the source gives them in different places.

For test [1], the system named is H358 cells. In words: Cell viability (3D spheroid, 3D CellTiter-Glo). It is filed as cell-based. The settings on record: Homo sapiens, NCI-H358, 120 h; H358 spheroids, 5 days treatment. As to the method: Human non-small cell lung cancer cell line H358 cells were purchased from the Korean Cell Line Bank. Cancer cell lines were cultured in the recommended RPMI-1640 medium supplemented with 10% fetal bovine serum (FBS) and 1% penicillin/streptomycin. Monolayer-cultured cancer cell lines were detached by treatment with Trypsin/EDTA, and 100 µL of cell suspension containing 4 x 10^3 cells was each dispensed into SPL3D™ Cell Floater, 96-well round plate, through cell line counting. After culturing for 72 hours to form spheroid, the cells were individually treated with the compounds according to the Examples, which had been serially diluted (minimum 1.5 nM, maximum 10 µM in concentration), and then cultured in a cell incubator for 5 days. To analyze cell viability, the cells were treated with 50 uL of 3D CellTiter-Glo, stirred for 5 minutes at 500 rpm in a plate shaker from Thermo Fisher Scientific, and incubated for 25 minutes at room temperature. Then, the luminescent values were measured using a Varioskan equipment from Thermo Fisher Scientific. IC50 values were obtained using GraphPad's Prism from the measured values depending on the concentration.
In the cell viability assay, when an IC50 value was 50 nM or more, + was indicated, when an IC50 value was 10 nM or more and less than 50 nM, ++ was indicated, and when an IC50 value was less than 10 nM, +++ was indicated.
Background: Cellular ATP, detected with luciferase, serves as a proxy for viable cell number.

In test [2] the target is T1, SHP2 (Homo sapiens, UniProt Q06124).
T1 construct: SHP2 (full length, diluted to 100 pM final concentration in reaction buffer, BPS bioscience, US); purchased BPS bioscience, US
T1 sequence (Q06124 1-593): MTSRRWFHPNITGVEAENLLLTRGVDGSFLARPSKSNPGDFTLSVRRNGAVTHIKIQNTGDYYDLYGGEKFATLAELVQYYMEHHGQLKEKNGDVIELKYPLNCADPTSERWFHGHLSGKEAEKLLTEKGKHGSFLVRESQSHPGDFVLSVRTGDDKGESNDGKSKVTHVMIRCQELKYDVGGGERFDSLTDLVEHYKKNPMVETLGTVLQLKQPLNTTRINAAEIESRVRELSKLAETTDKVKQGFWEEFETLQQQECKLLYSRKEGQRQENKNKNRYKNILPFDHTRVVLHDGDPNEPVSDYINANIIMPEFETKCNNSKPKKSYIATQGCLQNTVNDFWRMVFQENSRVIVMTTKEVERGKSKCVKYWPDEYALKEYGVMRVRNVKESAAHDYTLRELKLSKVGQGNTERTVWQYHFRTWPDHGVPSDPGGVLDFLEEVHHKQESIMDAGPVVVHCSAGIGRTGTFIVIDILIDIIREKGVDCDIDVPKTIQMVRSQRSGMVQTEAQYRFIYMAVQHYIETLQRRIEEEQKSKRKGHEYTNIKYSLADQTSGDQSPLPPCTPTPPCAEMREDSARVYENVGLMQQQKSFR
Kind of test: Phosphatase assay (PTPase assay, DiFMUP substrate). It is filed as biochemical. As to the method:
IC50 values were measured using 6,8-difluoro-4-methylumbelliferyl phosphate (DiFMUP) as a substrate. The reaction was performed in a 384-well plate, and fluorescence measurement values were obtained using an EnVision plate reader from PerkinElmer.
SHP2 (full length, diluted to 100 pM final concentration in reaction buffer, BPS bioscience, US) was incubated with the SHP2 activating peptide in reaction buffer (60 mM HEPES (pH 7.2), 75 mM NaCl, 75 mM KCl, 1 mM EDTA, 5 mM DTT, 0.05% P-20) for 30 minutes to activate SHP2. After activation, DMSO [1% (V/V) or the compound according to the Examples (concentration ranging from 0.6 nM to 10 µM)] was added. As a positive control group, the selective SHP2 inhibitors SHP099 (6-(4-amino-4-methylpiperidin-1-yl)-3-(2,3-dichlorophenyl)pyrazin-2-amine, FOCUS bioscience, Austrailia; concentration ranging from 0.6 nM to 10 µM) and TNO155 ((3S,4S)-8-(6-amino-5-((2-amino-3-chloropyridin-4-yl)thio)pyrazin-2-yl)-3-methyl-2-oxa-8-azaspiro[4.5]decan-4-amine, Chemietek, US; concentration ranging from 0.6 nM to 10 µM) were used. [drawing 184]
DiFMUP (80 µM) was added to the reaction and incubated for a total of 2 hours to allow for the reaction to proceed. Thereafter, fluorescence (340 nm excitation, 450 nm emission) values were measured. IC50 values were obtained using Graphad's Prism from the measured values depending on the concentration.
In the phosphatase assay (PTPase assay), when an IC50 value was 100 nM or more, + was indicated, when an IC50 value was 3 nM or more and less than 100 nM, ++ was indicated, and when an IC50 value was less than 3 nM, +++ was indicated.

Where [3] appears, read: full length SHP2 100 pM activated with SHP2 activating peptide, DiFMUP 80 µM, 2 hours, read-out: PTPase assay (IC50).

Molecule `N[C@@H]1c2scnc2CC12CCN(c1cnc(Sc3ccc4ncn(-c5ccccc5)c(=O)c4c3Cl)cn1)CC2` [Example 38, (S)-6-((5-(6-amino-4,6-dihydrospiro[cyclopenta[d]thiazole-5,4'-piperidin]-1'-yl)pyrazin-2-yl)thio)-5-chloro-3-phenylquinazolin-4(3H)-one] came in with an IC50 in test [1] of less than 10 nM. As to `CC(C)n1ccc2ccc(Sc3cnc(N4CCC5(CC4)CO[C@@H](C)[C@H]5N)cn3)c(Cl)c2c1=O` [Example 46, 7-((5-((3S,4S)-4-amino-3-methyl-2-oxa-8-azaspiro[4.5]decan-8-yl)pyrazin-2-yl)thio)-8-chloro-2-isopropylisoquinolin-1(2H)-one], the IC50 in test [2] (setting [3]) was less than 3 nM; in test [1], 10 to 50 nM. For `C[C@@H]1OCC2(CCN(c3cnc(Sc4ccc5ncn(Cc6ccccc6)c(=O)c5c4Cl)c(N)n3)CC2)[C@@H]1N` [Example 12, 6-((3-amino-5-((3S,4S)-4-amino-3-methyl-2-oxa-8-azaspiro[4.5]decan-8-yl)pyrazin-2-yl)thio)-3-benzyl-5-chloroquinazolin-4(3H)-one], the IC50 in test [2] (setting [3]) lay in the range of 3 to 100 nM.

As for `COC(C)(C)Cn1cnc2ccc(Sc3cnc(N4CCC5(CC4)Cc4scnc4[C@H]5N)cn3)c(Cl)c2c1=O` [Example 33, (S)-6-((5-(4-amino-4,6-dihydrospiro[cyclopenta[d]thiazole-5,4'-piperidin]-1'-yl)pyrazin-2-yl)thio)-5-chloro-3-(2-methoxy-2-methylpropyl)quinazolin-4(3H)-one], the IC50 in test [1] was in the range of 10 to 50 nM. Turning to `COC1(Cn2cnc3ccc(Sc4cnc(N5CCC6(CC5)CO[C@@H](C)[C@H]6N)cn4)c(Cl)c3c2=O)CC1` [Example 20, 6-((5-((3S,4S)-4-amino-3-methyl-2-oxa-8-azaspiro[4.5]decan-8-yl)pyrazin-2-yl)thio)-5-chloro-3-((1-methoxycyclopropyl)methyl)quinazolin-4(3H)-one], the IC50 in test [2] (setting [3]) is 3 to 100 nM. Turning to `COC(F)(F)Cn1cnc2ccc(Sc3cnc(N4CCC5(CC4)CO[C@@H](C)[C@H]5N)cn3)c(Cl)c2c1=O` [Example 19, 6-((5-((3S,4S)-4-amino-3-methyl-2-oxa-8-azaspiro[4.5]decan-8-yl)pyrazin-2-yl)thio)-5-chloro-3-(2,2-difluoro-2-methoxyethyl)quinazolin-4(3H)-one], the IC50 in test [2] (setting [3]) is less than 3 nM. As to `C[C@@H]1OCC2(CCN(c3cnc(Sc4ccc5ncn(CC6(C)CCOCC6)c(=O)c5c4Cl)cn3)CC2)[C@@H]1N` [Example 23, 6-((5-((3S,4S)-4-amino-3-methyl-2-oxa-8-azaspiro[4.5]decan-8-yl)pyrazin-2-yl)thio)-5-chloro-3-((4-methyltetrahydro-2H-pyran-4-yl)methyl)quinazolin-4(3H)-one], the IC50 in test [2] (setting [3]) is less than 3 nM; in test [1], 10 to 50 nM.

With `CC(C)n1ccc2ccc(Sc3cnc(N4CCC5(CC4)Cc4ncsc4[C@H]5N)cn3)c(Cl)c2c1=O` [Example 40, (S)-7-((5-(6-amino-4,6-dihydrospiro[cyclopenta[d]thiazole-5,4'-piperidin]-1'-yl)pyrazin-2-yl)thio)-8-chloro-2-isopropylisoquinolin-1(2H)-one], the IC50 was 3 to 100 nM in test [2] (setting [3]) and less than 10 nM in test [1]. Regarding `C[C@@H]1OCC2(CCN(c3cnc(Sc4ccc5ncn(CCC#N)c(=O)c5c4Cl)cn3)CC2)[C@@H]1N` [Example 24, 3-(6-((5-((3S,4S)-4-amino-3-methyl-2-oxa-8-azaspiro[4.5]decan-8: yl)pyrazin-2-yl)thio)-5-chloro-4-oxoquinazolin-3(4H)-yl)propanenitrile], the IC50 in test [2] is less than 3 nM; in test [1], 10 to 50 nM. With `COCCn1cnc2ccc(Sc3cnc(N4CCC5(CC4)Oc4ccccc4[C@H]5N)cn3)c(Cl)c2c1=O` [Example 22, (R)-6-((5-(3-amino-3H-spiro[benzofuran-2,4'-piperidin]-1'-yl)pyrazin-2-yl)thio)-5-chloro-3-(2-methoxyethyl)quinazolin-4(3H)-one], the IC50 in test [2] (setting [3]) fell in the range of 3 to 100 nM. For `Cn1cnc2ccc(Sc3cnc(N4CCC5(CC4)Cc4ncsc4[C@H]5N)cn3)cc2c1=O` [Example 17, (S)-6-((5-(6-amino-4,6-dihydrospiro[cyclopenta[d]thiazole-5,4'-piperidin]-1'-yl)pyrazin-2-yl)thio)-3-methylquinazolin-4(3H)-one], the IC50 in test [2] (setting [3]) is less than 3 nM; in test [1], less than 10 nM.

In test [1], `N[C@@H]1c2ccccc2CC12CCN(c1cnc(Sc3ccc4ncn(-c5ccccc5)c(=O)c4c3Cl)cn1)CC2` [Example 30, (S)-6-((5-(1-amino-1,3-dihydrospiro[indene-2,4'-piperidin]-1'-yl)pyrazin-2-yl)thio)-5-chloro-3-phenylquinazolin-4(3H)-one] returned an IC50 of less than 10 nM. With `Cn1cnc2ccc(Sc3cnc(N4CCC5(CC4)Cc4ncccc4[C@H]5N)cn3)c(Cl)c2c1=O` [Example 6, (S)-6-((5-(5-amino-5,7-dihydrospiro[cyclopenta[b]pyridine-6,4'-piperidin]-1'-yl)pyrazin-2-yl)thio)-5-chloro-3-methylquinazolin-4(3H)-one], the figures for the IC50 in test [2] (setting [3]) and in test [1] were less than 3 nM and less than 10 nM, respectively.

On to `COC(C)Cn1ccc2ccc(Sc3cnc(N4CCC5(CC4)Cc4ccccc4[C@H]5N)cn3)c(Cl)c2c1=O` (stereo partly drawn) [Example 42, 7-((5-((S)-1-amino-1,3-dihydrospiro[indene-2,4'-piperidin]-1'-yl)pyrazin-2-yl)thio)-8-chloro-2-(2-methoxypropyl)isoquinolin-1(2H)-one], for which the 50% inhibitory concentration (IC50) was less than 3 nM in test [2] (setting [3]) and less than 10 nM in test [1].

For the molecule `Cn1ccc2ccc(Sc3cnc(N4CCC5(CC4)Cc4ncsc4[C@H]5N)cn3)c(Cl)c2c1=O` [Example 16, (S)-7-((5-(6-amino-4,6-dihydrospiro[cyclopenta[d]thiazole-5,4'-pineridin]-1'-yl)pyrazin-2-yl)thio)-8-chloro-2-methylisoquinolin-1(2H)-one], the IC50 in test [1] was less than 10 nM. As for `C[C@@H]1OCC2(CCN(c3cnc(Sc4ccc5ncn(CC(C)(F)F)c(=O)c5c4Cl)cn3)CC2)[C@@H]1N` [Example 21, 6-((5-((3S,4S)-4-amino-3-methyl-2-oxa-8-azaspiro[4.5]decan-8-yl)pyrazin-2-yl)thio)-5-chloro-3-(2,2-difluoropropyl)quinazolin-4(3H)-one], in test [2] (setting [3]), the IC50 is less than 3 nM. As to `CC1(CN)CCN(c2cnc(Sc3ccc4ncn(Cc5ccccc5)c(=O)c4c3Cl)c(N)n2)CC1` [Example 13, 6-((3-amino-5-(4-(aminomethyl)-4-methylpiperidine-1-yl)pyrazin-2-yl)thio)-3-benzyl-5-chloroquinazolin-4(3H)-one], the IC50 in test [2] (setting [3]) is 3 to 100 nM. Turning to `CC(C)(C)Cn1cnc2ccc(Sc3cnc(N4CCC5(CC4)Cc4ncsc4[C@H]5N)cn3)c(Cl)c2c1=O` [Example 5, (S)-6-((5-(6-amino-4,6-dihydrospiro[cyclopenta[d]thiazole-5,4'-piperidin]-1'-yl)pyrazin-2-yl)thio)-5-chloro-3-neopentylquinazolin-4(3H)-one], the IC50 in test [2] (setting [3]) is less than 3 nM.

One may read the IC50 as the concentration at which inhibition is half-maximal.
